In US7544365B2, “TRPV1+ sensory neurons control of β-cells stress and islet inflammation in diabetes” (priority 2006, dated 2009):
Entries after “also recorded” stand apart in the source; their conditions may differ.

Columns and labels:
[1] = Diabetes reversal after pancreatic i.a. substance P in newly diabetic NOD mice; assay type: in vivo
Protocol: (§1) Animals were anaesthetized with isoflurane and the aorta developed with minimal trauma to ligate above and below the celiac artery. A 32G needle was used to inject Evans Blue (3 mg/kg/100 μl; Sigma), substance P (2 nmol/100 μl; Sigma) or saline into the aorta just prior to the celiac branching. Ligations are released after closure of the injection site. For insulitis studies, pancreata from treated mice were obtained 48-72 hr after pancreas injection treatment and histology performed. In diabetes reversal experiments, newly diagnosed NOD female mice were treated with either saline or substance P and followed without exogenous insulin treatment.

[2] = tested on: islet T cell infiltration; assay: Intra-arterial pancreas injection of substance P in prediabetic NOD mice (insulitis); assay type: in vivo
Protocol: as §1
Frozen murine pancreas sections were fixed in 4% paraformaldehyde, blocked with 5% normal donkey serum (Jackson), and stained with polyclonal rat or goat antibodies against GFAP (Signet Pathology Systems, Dedham, Mass.), polyclonal rabbit anti-TRPV1 (Oncogene) or guinea-pig antibody against insulin (DAKO, Carpinteria, Calif.). Bound antibodies were detected with biotinylated donkey anti-guinea pig or rat IgG (1:200, Jackson), Streptavidin AlexaFluor 546 or 633 (1:300, Molecular Probes, Eugene, Oreg.), and FITC conjugated donkey anti-rabbit IgG (1:25, Jackson). […] TRPV1 staining was performed on snap-frozen sections of NOD female pancreas with an overnight incubation of primary antibody at 4° C. […]

[3] = tested on: activated CD4+ NOD T cells; assay: sP response of activated CD4+ NOD T cells in vitro (proliferation); assay type: cell-based, NOD mice
Protocol: Splenocytes from 3- to 24 wk-old NOD females were cultured (4×10^5 cells/well) in AIM V serum-free medium (Life Technologies) containing antigen (0.002-50 μg/ml), baculovirus-derived human GAD65 (Diamyd Diagnostics, Stockholm, Sweden), human GFAP (>90% pure) and bovine S100b (>98% pure; Calbiochem, San Diego, Calif.) were purchased, other antigens were previously generated and described (Winer et al., 2003). After 72 hrs, cultures were pulsed (1 μCi, [3H]thymidine/18 hrs) and counted by liquid scintillation. Lymph node assays were similar, but used 2×10^5 lymph node cells plus 2×10^5 irradiated (1,100 rad), syngeneic splenocytes/well. To normalize pooled data, we calculated a stimulation index (SI, cpm antigen stimulated/medium control), background counts were <1500 cpm in spleen cell and <1000 cpm in lymph node cultures. In some proliferation studies, plate-bound anti-CD3 (0.001-3 μg/ml; BD PharMingen) and anti-CD28 (0.2 μg/ml; BD PharMingen) were used to stimulate CD4+ T-cells negatively selected from NOD β2m^null splenocytes in the presence of substance P.

[4] = tested on: BDC2.5 T cell receptor transgenic T cells; assay: CFSE dye dilution in vivo clonal expansion of BDC2.5 T cells in pancreatic lymph nodes; design: species or system NOD mice
Protocol: For dye dilution in vivo clonal expansion studies, splenic CD4+ T-cells from NOD-BDC2.5 females were isolated by negative selection (Stemcell Technologies, Vancouver, Canada) and incubated with 2.5 μM CFSE (10′/37° C., Molecular Probes, Eugene, Oreg.) in PBS. Prediabetic (12 wk) NOD females pretreated 12 hr prior with substance P or saline, were injected i.v. with 3×10^6 CFSE-labeled CD4+ T-cells in sterile PBS.
Lymphocytes from thymus, pancreatic/axillary lymph nodes and spleen were stained with FITC, PE, and APC conjugated antibodies to CD3, CD4, CD8, CD44, CD25, CD69 CD62L and FoxP3 (BD Pharmingen, not all combinations are shown). NK-1R and Vβ4 antibodies were obtained from Novus Biologicals (Littleton, Colo.) and Cedarlane (Hornby, Canada), respectively. Live events were collected based on forward- and side-scatter profiles on a FACScan flow cytometer (BD) and analyzed using FlowJo software (Stanford University).

[5] = tested on: TRPV1^+ neurons; assay: Neonatal capsaicin treatment of diabetes-prone NOD mice: insulitis and diabetes development; assay type: in vivo
Description: Using immunofluorescence, it was observed that murine islets are associated with meshworks of TRPV1^+ fibers (FIG. 1a). TRPV1 was undetectable in endocrine islet cells by immunofluorescence (FIG. 1a, b) and by RT-PCR of purified NOD islets (FIG. 9). based on this evidence of islet innervation by TRPV1^+ primary afferent sensory neurons, we investigated their possible role in T1D pathogenesis, using neonatal treatment of diabetes-prone NOD mice with capsaicin to permanently remove these neurons (Caterina and Julius, 2001; Jancso et al., 1977). Two day-old NOD mice received capsaicin (50 mg/kg, s.c.) or vehicle (NOD^caps, NOD^ctrl). […] We confirmed the lack of TRPV1 expression in NOD^caps mice, using immunofluorescence (FIG. 1a, b, TRPV1 green), Western blots (8, 12 & 20 wk), and standard hot-plate testing in randomly selected 5-6 wk old or in diabetic animals (FIG. 1c).
(§2) NOD, NOD.scid, BDC2.5 TCR transgenic NOD mice (‘BDC2.5-NOD’), NOD-β2m^null, C57BL/6 (‘B6’), B6-TRPV1^null, NOR NOD×B6 Idd4 congenic mice (NOD.B6-(D11Nds1-D11Mit325)/DelJ) were obtained from the Jackson Laboratories (Bar Harbor, Me.) and maintained under approved protocols in our vivarium (NOD female diabetes incidence: 85-90%). […] Control mice (NOD^ctrl) received 20 μL vehicle (10% ethanol, 10% Tween, 80% saline). In adoptive transfer experiments, splenocytes from 4-6 diabetic NOD females were pooled and 10^7 cells/mouse were injected (100 μL i.v.) into irradiated (300 rad) 6- to 8 wk-old NOD.scid recipients. Diastix strips were used to screen for glucosuria (Bayer HealthCare), diabetes was confirmed by diabetic blood glucose measurements on 2 consecutive days (>13.8 mM/l; SureStep, Life Technologies Inc., Burnaby, British Columbia, Canada).
Frozen murine pancreas sections were fixed in 4% paraformaldehyde, blocked with 5% normal donkey serum (Jackson), and stained with polyclonal rat or goat antibodies against GFAP (Signet Pathology Systems, Dedham, Mass.), polyclonal rabbit anti-TRPV1 (Oncogene) or guinea-pig antibody against insulin (DAKO, Carpinteria, Calif.). Bound antibodies were detected with biotinylated donkey anti-guinea pig or rat IgG (1:200, Jackson), Streptavidin AlexaFluor 546 or 633 (1:300, Molecular Probes, Eugene, Oreg.), and FITC conjugated donkey anti-rabbit IgG (1:25, Jackson). […] TRPV1 staining was performed on snap-frozen sections of NOD female pancreas with an overnight incubation of primary antibody at 4° C. To score insulitis severity, pancreata were fixed in 10% buffered formalin for a minimum of 24 hr. Histological sections were stained with hematoxylin and eosin and three blinded observers scored at the following scale: 0, normal islet; 1, peri-insulitis or encroachment of <25% of the islet surface area; 2, infiltration of 25-50% of the islet surface area; 3, infiltration of >50% of the islet surface area (Winer et al., 2003). Spleen and lymph node cells were stained with either 2 nM PE-conjugated NRP-V7/H-2K^d or TUM/H-2K^d tetramers, the latter a negative control, in FACS buffer (1% v/v FBS, 0.1% w/v NaN3 in PBS) at 4° C. for 1 hr, followed by staining with FITC-conjugated anti-CD8 mAb (clone 53-6.7; […]) and PerCP-conjugated anti-B 220 Ab (clone RA6-3B2; […], both from BD Pharmingen). Tetramer positivity was analyzed on gated CD8+B220− cells and reported as percentage of cells binding the NRP-V7/H-2K^d tetramer minus the percentage of cells binding the negative control, TUM/H-2K^d tetramer.

[6] = tested on: TRPV1; assay: Capsaicin-evoked Ca^2+ responses in dorsal root ganglion neurons; assay type: cell-based, NOD and NOR mice; conditions: NOD DRG neurons compared with NOR, p<0.05
Protocol: Dorsal root ganglia from male NOD, NOR mice and NOD.B6.Idd4-congenic (5-10 wk) were isolated and cultured in F12 medium (Invitrogen) with 10 ng/mL nerve- and 10 ng/mL glial-derived nerve growth factor. Cultures were used 3-5 d after plating. The Ca^2+-sensitive fluorophore, fura-2 (Molecular Probes, Eugene, Oreg.), was used to assess [Ca^2+]i by ratiometric measurement. Excitation (340 and 380 nm) was generated by a xenon arc lamp and passed through a high-speed, computer-controlled, variable-wavelength monochromator. This light was transmitted to the recording dish via a fiberoptic cable. Emitted light was directed through a 510 nm bandpass filter and detected by an intensified CCD camera. Image data were analyzed off-line. Each 340 nm image was divided, on a pixel-by-pixel basis, by the corresponding 380 nm image, producing a ratio. Averaged values of the ratios within each region of interest were plotted as a function of time.

[7] = tested on: TRPV1^+ sensory neurons; assay: Glucose challenge and insulin tolerance after capsaicin removal of TRPV1^+ sensory neurons; assay type: in vivo, NOD.scid / NOD mice
Description: We compared measures of β-cell function in untreated and in capsaicin treated NOD.scid mice, and in C57/BL6J (‘B6’) and B6.TRPV1^−/− mice, the latter with a normal complement of sensory afferent neurons but absent TRPV1 expression (Caterina et al., 2000). NOD.scid mice were used to ascertain absence of lymphoid islet infiltration in NOD experiments, CD1 mice provided controls (FIGS. 17A-17C).
as §2

[8] = tested on: TRPV1^+ neurons; assay: Systemic and pancreatic T cell development and function in NOD^caps versus NOD^ctrl mice; assay type: in vivo
Protocol: Delayed type hypersensitivity (DTH): […] Abdomens were shaved and 100 μl of the allergen were applied. 6 d later, the baseline thickness of right ears were measured by gauge before application of 10 μl 1% TNCB in oil or carrier only. Ear thickness was re-measured in sensitized and naïve animals 24 hr later. […] Calbiochem, San Diego, Calif.) were purchased, other antigens were previously generated and described (Winer et al., 2003). After 72 hrs, cultures were pulsed (1 μCi, [3H]thymidine/18 hrs) and counted by liquid scintillation. Lymph node assays were similar, but used 2×10^5 lymph node cells plus 2×10^5 irradiated (1,100 rad), syngeneic splenocytes/well. […] Bound antibodies were detected with biotinylated donkey anti-guinea pig or rat IgG (1:200, Jackson), Streptavidin AlexaFluor 546 or 633 (1:300, Molecular Probes, Eugene, Oreg.), and FITC conjugated donkey anti-rabbit IgG (1:25, Jackson). […] Histological sections were stained with hematoxylin and eosin and three blinded observers scored at the following scale: 0, normal islet; 1, peri-insulitis or encroachment of <25% of the islet surface area; 2, infiltration of 25-50% of the islet surface area; 3, infiltration of >50% of the islet surface area (Winer et al., 2003). […] Live events were collected based on forward- and side-scatter profiles on a FACScan flow cytometer (BD) and analyzed using FlowJo software (Stanford University).

[9] = mice that failed to reverse hyperglycemia, i.a. sP
[10] = systemic (i.v.) injection of the same sP dose

Compound: substance P
- body weight [1, 9]: preventing the progressive loss of body weight
- insulin sensitivity in non-responding mice [1, 9]: improved insulin sensitivity
- normalization of blood glucose levels ([1]; newly diabetic NOD mice, 2-3 d after diagnosis, pancreatic i.a. sP, without insulin therapy): over half of the i.a. injected diabetics normalized blood glucose levels
- insulin sensitivity ([1]; raising pancreatic sP levels, diabetic NOD mice): dramatically enhanced insulin sensitivity
- time fasting blood glucose remained at near normal levels ([1]; responding mice): 2-8 wk
- islets free of T cell infiltration ([2]; prediabetic NOD, 12 wk of age, within 2d after i.a. sP injection (2 nmoles/kg)): about 80%
- effect on islet T cell infiltration, systemic injection [2, 10]: did not have similar effects
- cell proliferation and survival [3]: abrogated cell proliferation and survival in a dose-dependent fashion
- expansion in pancreatic lymph nodes of BDC2.5 cells pretreated in vitro ([4]; cells in vitro pretreated with sP overnight, p=0.0045): reduced the ability of these cells to expand in pancreatic lymph nodes
- cellularity and clonal expansion of BDC2.5 T cells in pancreatic lymph nodes ([4]; pancreatic i.a. sP 12-16 hr before transfer, analyzed 4 days later, dye dilution, p=0.003): reduced cellularity and clonal expansion
- expansion of BDC2.5 T cells in pancreatic lymph nodes, systemic injection [4, 10]: had no effect on expansion

Compound: COc1cc(CNC(=O)CCCC/C=C/C(C)C)ccc1O [capsaicin]
- tolerability of neonatal capsaicin treatment ([5]; 50 mg/kg s.c. in 2 day-old mice): viable, fertile, without abnormalities in growth or gross tissue structure, including pancreas; also recorded: no signs of adverse effects
- islets free of lymphocytes ([5]; NOD^caps mice (capsaicin 50 mg/kg s.c. at 2 days old), by age 20 wk): More than 70%
- islet infiltrations compared with NOD^ctrl ([5]; NOD^caps mice, p<0.0001): significantly reduced
- reduction in final diabetes incidence ([5]; neonatal capsaicin treatment, 35 wk plus next 12 wk, n=52 mice/group, p<0.0001): about 80%
- onset of diabetes ([5]; neonatal capsaicin treatment, p=0.0002): delayed the onset of diabetes
- fraction of NOD^caps mice in which infiltrated islets were entirely absent ([5]; serial sectioning): one third
- drug concentration required for maximum Ca^2+ response, NOD versus NOR DRG neurons [6]: 10 fold
- serum glucose levels after i.p. glucose challenge ([7]; 10-12 wk old NOD.scid^caps versus NOD.scid^ctrl, p=0.004): significantly reduced
- insulin production after glucose challenge ([7]; NOD.scid^caps versus NOD.scid^ctrl): significantly less insulin production
- regulatory T cell compartment in pancreatic lymph nodes ([8]; NOD^caps mice, beyond 12-16 wk of age): maintained their regulatory T cell compartment
- CD8+ and activated CD8+ CD69+ effector T lymphocytes in pancreatic lymph node tissue ([8]; NOD^caps versus NOD^ctrl): significantly reduced proportions and absolute numbers
